Results: paper PMC8260228, “Two de novo GluN2B mutations affect multiple NMDAR-functions and instigate severe pediatric encephalopathy” (eLife, 2021)
Like-named read-outs stand apart in the source and are kept apart here.

Columns and labels:
[1] = target: T1, hGluN1a + hGluN2Bwt (Homo sapiens, UniProt Q05586+Q13224); assay: Assessing potentiation by D-serine, TEVC in oocytes; settings: 100 μM D-serine, 5 mM glutamate, 1 μM glycine
[2] = tested on: GluN1; parameters: method as in Traynelis et al., 2010; settings: ref Traynelis et al., 2010; cited from earlier work
[3] = target: T1, hGluN1a + hGluN2Bwt; assay: Glutamate dose-response, TEVC in Xenopus oocytes; assay type: cell-based; parameters: expressed in transfected cells; host or cells: Xenopus laevis oocytes injected with in vitro transcribed mRNA (pCI-Neo plasmids produced by the Traynelis lab)
From the text: All Experiments were approved by the Technion Institutional Animal Care and Use Committee (permit SB, no. IL-129-09-17). Xenopus laevis oocytes were harvested, prepared, and injected with mRNA as previously described ([Berlin et al., 2020]). Briefly, oocytes were obtained from anesthetized (by 0.4% tricaine solution) female frogs. Oocytes were extracted from ovaries, defolliculated by collagenase treatment in ND96 Ca^+2-free solution (in mM: 96 NaCl, 2 KCL, 1 MgCl2, 5 HEPES, pH 7.4) for about 45 min at RT. Cells were washed with ND96 Ca^+2 -free and transferred to enriched ND96 (NDE) consisting of ND96 supplemented with 1.8 mM CaCl2, 2.5 mM sodium pyruvate, 100 μg/ml streptomycin and 62.75 μg/ml penicillin. Stage V oocytes were manually isolated, incubated overnight at 18°C and injected with mRNA the next day.
For mRNA preparation, DNA plasmids were linearized by restriction enzymes (NotI), followed by in vitro mRNA transcription using mMessage-mMachine T7 kit (Thermo Scientific, Cat.#AM1344), as previously described ([Berlin et al., 2010]). mRNA concentrations were determined using a spectrophotometer. […]
Data were analyzed by Clampfit software (Molecular Devices, USA) and were fitted using Sygmaplot 11 (Systat software, inc) to Hill’s equation (Equation 1) from which we extracted EC50 values.

[4] = tested on: GRIN2A mutation D731N; parameters: method as in Swanger et al., 2016; settings: ref Swanger et al., 2016; cited from earlier work
[5] = tested on: GluN2B-mutant; parameters: method as in Soto et al., 2019; settings: ref Soto et al., 2019; cited from earlier work
[6] = tested on: GluN2B-E413G; parameters: method as in Swanger et al., 2016; settings: read-out: glutamate potency EC50; ref Swanger et al., 2016; cited from earlier work
[7] = target: T1, hGluN1a + hGluN2Bwt; settings: read-out: Glycine EC50; 5 mM glutamate
Procedure: Two electrode voltage clamp (TEVC) recordings were carried-out 24–72 hr following mRNA injections, as previously described ([Berlin et al., 2011]). Recordings were performed using commercial amplifier (Warner Instruments, USA) and Digitizer (Digidata-1550B; Molecular Devices, USA), controlled by pClamp10 software (Molecular Devices, USA). Electrodes consisted of pulled glass capillaries (by puller- Narishige, Japan) with chlorinated silver wire, filled with 3M KCl. Oocytes were clamped to −60 mV and perfused with nominally Mg^+2-free barth solution (in mM): 100 NaCl, 0.3 BaCl2, 5 HEPES, pH 7.3 (adjusted with NaOH).
Data were analyzed by Clampfit software (Molecular Devices, USA) and were fitted using Sygmaplot 11 (Systat software, inc) to Hill’s equation (Equation 1) from which we extracted EC50 values. […] IC50 values for Mg^+2 and proton inhibition were extrapolated by fitting the results to Hill’s equation (Equation 4). τoff values for apparent open probability were extrapolated by fitting the result to a mono-exponential function (Equation 5). t10-90% results were obtained by placing cursors at beginning and end of responses, then automatically assessed by the Clampfit software (under statistics, positive going). mEPSCs were detected off-line using pCLAMP 10’s template search. Briefly, 5–10 ‘minis’ were identified and selected by user, followed by an automated search. […]

[8] = target: T1, hGluN1a + hGluN2Bwt; assay: Apparent open probability: MK-801 block kinetics, TEVC in oocytes; assay type: cell-based; parameters: expressed in transfected cells; host or cells: Xenopus laevis oocytes injected with in vitro transcribed mRNA (pCI-Neo plasmids produced by the Traynelis lab); settings: 1 μM MK-801 after 3 mM glutamate, 100 μM glycine
Procedure: MK-801 (activity-dependent pore blocker of GluNRs) was purchased from Alomone labs (cat.# M-230). One mM stock solutions were made by diluting lyophilized MK-801 in barth solution. […] Deactivation kinetics were fitted from which we extracted t10-90% or deactivation constant, τoff.
Data were analyzed by Clampfit software (Molecular Devices, USA) and were fitted using Sygmaplot 11 (Systat software, inc) to Hill’s equation (Equation 1) from which we extracted EC50 values. […] IC50 values for Mg^+2 and proton inhibition were extrapolated by fitting the results to Hill’s equation (Equation 4). τoff values for apparent open probability were extrapolated by fitting the result to a mono-exponential function (Equation 5). t10-90% results were obtained by placing cursors at beginning and end of responses, then automatically assessed by the Clampfit software (under statistics, positive going). mEPSCs were detected off-line using pCLAMP 10’s template search. Briefly, 5–10 ‘minis’ were identified and selected by user, followed by an automated search. All automatically identified minis were validated by user.

[9] = target: T1, hGluN1a + hGluN2Bwt; assay: Mg2+ dose-response (block), TEVC in Xenopus oocytes; assay type: cell-based; parameters: expressed in transfected cells; host or cells: Xenopus laevis oocytes injected with in vitro transcribed mRNA (pCI-Neo plasmids produced by the Traynelis lab); settings: 5 mM glutamate, 100 μM glycine, −60 mV; read-out: Mg^+2 IC50 (−60 mV)
[10] = tested on: GluN2B-subunit; settings: read-out: spermine reported EC50; ref Mony et al., 2011; cited from earlier work
[11] = target: T1, hGluN1a + hGluN2Bwt
Procedure: With the intent to rescue (i.e. increase) current amplitudes, we turned our attention toward spermine— a naturally-occurring and highly specific GluN2B-subunit potentiator ([Mony et al., 2009]; [Mony et al., 2011]). […] To further address this issue we employed arcaine-sulfate (a competitive antagonist of the polyamine site [[Gomes et al., 2014]; [Araneda et al., 1999]; [Reynolds, 1990]]).
Spermine was purchased from Sigma-Aldrich (Cat. #S3256). A total of 200 mM stock solutions were made by diluting powdered spermine in barth solution at different pHs (6.3 and 7.3). […] Arcaine sulfate was purchased from Alomone labs (Cat. # 14923-17-2). Ten mM solutions were made by diluting lyophilized Arcaine sulfate in barth solution at pH = 6.5.

T1 sequence (Q13224 27-1484, other chains not shown): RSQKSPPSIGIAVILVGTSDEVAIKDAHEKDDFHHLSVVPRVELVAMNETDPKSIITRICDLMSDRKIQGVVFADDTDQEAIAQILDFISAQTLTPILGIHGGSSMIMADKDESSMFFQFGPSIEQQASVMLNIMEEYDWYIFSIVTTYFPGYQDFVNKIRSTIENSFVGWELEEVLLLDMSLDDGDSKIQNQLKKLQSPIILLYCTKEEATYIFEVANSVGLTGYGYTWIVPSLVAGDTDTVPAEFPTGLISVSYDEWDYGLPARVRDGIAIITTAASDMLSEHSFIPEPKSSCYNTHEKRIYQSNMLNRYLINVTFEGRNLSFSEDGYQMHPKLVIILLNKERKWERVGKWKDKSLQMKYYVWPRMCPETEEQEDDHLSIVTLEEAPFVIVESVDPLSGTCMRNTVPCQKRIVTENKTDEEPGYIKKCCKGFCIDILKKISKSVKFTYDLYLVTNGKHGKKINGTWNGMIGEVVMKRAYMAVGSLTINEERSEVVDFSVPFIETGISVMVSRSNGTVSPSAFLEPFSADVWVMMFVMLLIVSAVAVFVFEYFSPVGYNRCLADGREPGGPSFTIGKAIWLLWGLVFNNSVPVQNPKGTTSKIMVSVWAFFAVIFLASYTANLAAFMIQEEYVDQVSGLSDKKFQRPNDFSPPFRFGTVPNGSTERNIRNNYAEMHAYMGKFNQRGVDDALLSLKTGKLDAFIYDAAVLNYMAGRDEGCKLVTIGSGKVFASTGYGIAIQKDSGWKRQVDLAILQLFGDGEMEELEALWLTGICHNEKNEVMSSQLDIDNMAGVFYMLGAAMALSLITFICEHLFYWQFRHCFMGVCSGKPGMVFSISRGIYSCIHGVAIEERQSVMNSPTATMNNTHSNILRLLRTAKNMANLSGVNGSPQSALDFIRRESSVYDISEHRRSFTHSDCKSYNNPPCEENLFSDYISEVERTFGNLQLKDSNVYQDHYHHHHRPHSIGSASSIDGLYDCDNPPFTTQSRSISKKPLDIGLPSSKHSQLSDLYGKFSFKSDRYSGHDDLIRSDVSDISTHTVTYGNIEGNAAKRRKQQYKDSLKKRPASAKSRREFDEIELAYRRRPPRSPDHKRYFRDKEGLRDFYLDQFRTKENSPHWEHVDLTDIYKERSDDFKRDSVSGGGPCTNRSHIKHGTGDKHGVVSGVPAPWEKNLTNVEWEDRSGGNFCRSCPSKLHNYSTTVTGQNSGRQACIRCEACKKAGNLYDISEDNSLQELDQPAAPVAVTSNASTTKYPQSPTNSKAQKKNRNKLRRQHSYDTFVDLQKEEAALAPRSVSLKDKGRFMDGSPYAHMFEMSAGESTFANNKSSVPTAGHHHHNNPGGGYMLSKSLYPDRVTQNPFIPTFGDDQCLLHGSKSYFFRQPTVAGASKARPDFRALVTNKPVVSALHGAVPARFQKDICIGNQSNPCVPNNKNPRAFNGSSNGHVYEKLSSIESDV

SMILES: N[C@H](CO)C(=O)O [D-serine]
- increase of the maximal current by D-serine [1]: ~ 35%
- EC50 [2]: ~0.7 µM

SMILES: N[C@@H](CCC(=O)O)C(=O)O [Glutamate, glutamate]
- Imax Norm. to wt ([3]; normalized maximal glutamate current, oocytes): 1 ± 0.08; (22)
- contribution to the total current by excess glutamate >100 μM ([3]; receptors saturated at 100 μM glutamate): < 15%
- reduction in glutamate potency [4]: ~ 6000 fold
- reduction in EC50 [5]: ~ 7 fold
- EC50 [6]: 79 ± 5.3 µM

SMILES: NCC(=O)O [Glycine, glycine]
- EC50 [7]: 0.23 ± 0.03 µM

SMILES: C[C@]12N[C@H](Cc3ccccc31)c1ccccc12 [MK-801]
- 10–90% inhibition rate [8]: 8554 ± 827 ms; (24)
- τoff ([8]; mono-exponential fit): 4590 ± 603 ms; (24)

SMILES: [Mg+2] [Mg^+2]
- IC50 [9]: 31 ± 3.7 µM

SMILES: NCCCNCCCCNCCCN [spermine]
- EC50 [10]: 200 µM
- potentiation by spermine ([11]; 200 μM spermine, pH 6.3): ~ 25 fold
- potentiation by spermine ([11]; 200 μM spermine, pH 7.3): ~ 70%
- current with spermine relative to basal glutamate current ([11]; 200 μM spermine, pH 7.3, 5 mM glutamate, 100 μM glycine): 172%
- inhibition by higher spermine concentrations ([11]; pH 7.3): not observed
